From paper PMC10939250 (PLOS Biology, 2024)
Residues, ends and D or L forms follow the SMILES beside them.

Columns and labels:
[1] = tested on: SARS-CoV-2 WA1 virus
[2] = mouse, in vivo
[3] = tested on: Jurkat cells

## CC[C@H](C)[C@H](NC(=O)[C@H](CC(C)C)NC(=O)[C@@H](NC(=O)CNC(=O)[C@@H](NC(=O)[C@H](CC(=O)O)NC(=O)[C@H](CC(=O)O)NC(=O)[C@H](CO)NC(=O)[C@@H](NC(=O)[C@H](Cc1ccccc1)NC(=O)[C@H](CO)NC(=O)[C@H](Cc1ccc(O)cc1)NC(=O)[C@H](CCSC)NC(=O)[C@H](CCC(N)=O)NC(=O)[C@@H]1CCCN1C(=O)[C@@H]1CCCN1C(=O)[C@H](CCCNC(=N)N)NC(=O)[C@H](CCCNC(=N)N)NC(=O)[C@H](CCCNC(=N)N)NC(=O)[C@H](CCC(N)=O)NC(=O)[C@H](CCCNC(=N)N)NC(=O)[C@H](CCCNC(=N)N)NC(=O)[C@H](CCCCN)NC(=O)[C@H](CCCCN)NC(=O)[C@H](CCCNC(=N)N)NC(=O)CN)C(C)C)[C@@H](C)O)[C@@H](C)O)C(=O)N[C@H](C(=O)N[C@@H](CC(N)=O)C(=O)N[C@@H](CO)C(=O)N[C@H](C(=O)N[C@@H](CC(C)C)C(=O)O)C(C)C)C(C)C [iPep-SARS2-E] (H-GRKKRRQRRRPPQMYSFVSDDTGTLIVNSVL-OH)
[1]
  IC50: ~400 nM
[2]
  Body weight and inflammation markers Cxcl12 and C5a: did not find any significant differences
[3]
  Cellular toxicity (healthy, apoptotic, dead/necrotic cells): does not cause cellular toxicity
